Source: PubChem BioAssay AID1259407 (Chemical Carcinogenesis Research Information System (CCRIS), 2018)
The source made the active and inactive calls. No rule for the calls is given here.

Test system: CCRIS mutagenicity, Ames/micronucleus/aberration tests
Test: CCRIS mutagenicity studies

SMILES: ClC(Br)Br
- mutagenic call (End Point: IN VITRO CHROMOSOMAL ABERRATIONS, Test System: CHINESE HAMSTER LUNG FIBROBLAST CELLS (CHL/IU), Metabolic Activation: RAT, LIVER, S-9, PHENOBARBITAL AND 5,6-BENZOFLAVONE): inactive; negative; authors describe as weakly positive
- mutagenic call (End Point: IN VITRO CHROMOSOMAL ABERRATIONS, Test System: CHO-LB CELLS, Metabolic Activation: NONE): inactive; negative
- mutagenic call (End Point: IN VIVO MICRONUCLEUS, Test System: BONE MARROW POLYCHROMATIC ERYTHROCYTES, Species: MOUSE, Strain/Sex: DDY/MALE, Route: IP): inactive; negative
- mutagenic call (Test System: AMES SALMONELLA TYPHIMURIUM, Strain/Indicator: RSJ100, Metabolic Activation: NONE, Method: STANDARD PLATE): active; positive
- mutagenic call (Test System: AMES SALMONELLA TYPHIMURIUM, Strain/Indicator: TA98, Metabolic Activation: HAMSTER, LIVER, S-9, AROCLOR 1254 (10%), Method: PREINCUBATION): inactive; negative
- mutagenic call (Test System: AMES SALMONELLA TYPHIMURIUM, Strain/Indicator: TA98, Metabolic Activation: HAMSTER, LIVER, S-9, AROCLOR 1254, Method: PREINCUBATION): inactive; negative
- mutagenic call (Test System: AMES SALMONELLA TYPHIMURIUM, Strain/Indicator: TA98, Metabolic Activation: NONE, Method: PREINCUBATION): inactive; negative
- mutagenic call (Test System: AMES SALMONELLA TYPHIMURIUM, Strain/Indicator: TA98, Metabolic Activation: NONE, Method: STANDARD PLATE): inactive; negative
- mutagenic call (Test System: AMES SALMONELLA TYPHIMURIUM, Strain/Indicator: TA98, Metabolic Activation: RAT, LIVER, S-9, AROCLOR 1254 (10%), Method: PREINCUBATION): inactive; negative
- mutagenic call (Test System: AMES SALMONELLA TYPHIMURIUM, Strain/Indicator: TA98, Metabolic Activation: RAT, LIVER, S-9, AROCLOR 1254, Method: PREINCUBATION): inactive; negative
- mutagenic call (Test System: AMES SALMONELLA TYPHIMURIUM, Strain/Indicator: TA98, Metabolic Activation: RAT, LIVER, S-9, AROCLOR 1254, Method: STANDARD PLATE): active; positive
- mutagenic call (Test System: AMES SALMONELLA TYPHIMURIUM, Strain/Indicator: TA100, Metabolic Activation: HAMSTER, LIVER, S-9, AROCLOR 1254 (10%), Method: PREINCUBATION): inactive; negative
- mutagenic call (Test System: AMES SALMONELLA TYPHIMURIUM, Strain/Indicator: TA100, Metabolic Activation: HAMSTER, LIVER, S-9, AROCLOR 1254, Method: PREINCUBATION): inactive; negative
- mutagenic call (Test System: AMES SALMONELLA TYPHIMURIUM, Strain/Indicator: TA100, Metabolic Activation: NONE, Method: DESICCATOR): active; positive
- mutagenic call (Test System: AMES SALMONELLA TYPHIMURIUM, Strain/Indicator: TA100, Metabolic Activation: NONE, Method: FLUCTUATION TEST): inactive; negative
- mutagenic call (Test System: AMES SALMONELLA TYPHIMURIUM, Strain/Indicator: TA100, Metabolic Activation: NONE, Method: PREINCUBATION): inactive; negative
- mutagenic call (Test System: AMES SALMONELLA TYPHIMURIUM, Strain/Indicator: TA100, Metabolic Activation: NONE, Method: STANDARD PLATE): inactive; negative
- mutagenic call (Test System: AMES SALMONELLA TYPHIMURIUM, Strain/Indicator: TA100, Metabolic Activation: RAT, LIVER, S-9, AROCLOR 1254 (10%), Method: PREINCUBATION): inactive; negative
- mutagenic call (Test System: AMES SALMONELLA TYPHIMURIUM, Strain/Indicator: TA100, Metabolic Activation: RAT, LIVER, S-9, AROCLOR 1254, Method: FLUCTUATION TEST): inactive; negative
- mutagenic call (Test System: AMES SALMONELLA TYPHIMURIUM, Strain/Indicator: TA100, Metabolic Activation: RAT, LIVER, S-9, AROCLOR 1254, Method: PREINCUBATION): inactive; negative
- mutagenic call (Test System: AMES SALMONELLA TYPHIMURIUM, Strain/Indicator: TA100, Metabolic Activation: RAT, LIVER, S-9, AROCLOR 1254, Method: STANDARD PLATE): active; positive
- mutagenic call (Test System: AMES SALMONELLA TYPHIMURIUM, Strain/Indicator: TA1535, Metabolic Activation: HAMSTER, LIVER, S-9, AROCLOR 1254 (10%), Method: PREINCUBATION): inactive; negative
- mutagenic call (Test System: AMES SALMONELLA TYPHIMURIUM, Strain/Indicator: TA1535, Metabolic Activation: HAMSTER, LIVER, S-9, AROCLOR 1254, Method: PREINCUBATION): inactive; negative
- mutagenic call (Test System: AMES SALMONELLA TYPHIMURIUM, Strain/Indicator: TA1535, Metabolic Activation: NONE, Method: PREINCUBATION): inactive; negative
- mutagenic call (Test System: AMES SALMONELLA TYPHIMURIUM, Strain/Indicator: TA1535, Metabolic Activation: NONE, Method: STANDARD PLATE): active; positive
- mutagenic call (Test System: AMES SALMONELLA TYPHIMURIUM, Strain/Indicator: TA1535, Metabolic Activation: RAT, LIVER, S-9, AROCLOR 1254 (10%), Method: PREINCUBATION): inactive; negative
- mutagenic call (Test System: AMES SALMONELLA TYPHIMURIUM, Strain/Indicator: TA1535, Metabolic Activation: RAT, LIVER, S-9, AROCLOR 1254, Method: PREINCUBATION): inactive; negative
- mutagenic call (Test System: AMES SALMONELLA TYPHIMURIUM, Strain/Indicator: TA1535, Metabolic Activation: RAT, LIVER, S-9, AROCLOR 1254, Method: STANDARD PLATE): active; positive
- mutagenic call (Test System: AMES SALMONELLA TYPHIMURIUM, Strain/Indicator: TA1537, Metabolic Activation: HAMSTER, LIVER, S-9, AROCLOR 1254 (10%), Method: PREINCUBATION): inactive; negative
- mutagenic call (Test System: AMES SALMONELLA TYPHIMURIUM, Strain/Indicator: TA1537, Metabolic Activation: HAMSTER, LIVER, S-9, AROCLOR 1254, Method: PREINCUBATION): inactive; negative
- mutagenic call (Test System: AMES SALMONELLA TYPHIMURIUM, Strain/Indicator: TA1537, Metabolic Activation: NONE, Method: PREINCUBATION): inactive; negative
- mutagenic call (Test System: AMES SALMONELLA TYPHIMURIUM, Strain/Indicator: TA1537, Metabolic Activation: NONE, Method: STANDARD PLATE): active; positive
- mutagenic call (Test System: AMES SALMONELLA TYPHIMURIUM, Strain/Indicator: TA1537, Metabolic Activation: RAT, LIVER, S-9, AROCLOR 1254 (10%), Method: PREINCUBATION): inactive; negative
- mutagenic call (Test System: AMES SALMONELLA TYPHIMURIUM, Strain/Indicator: TA1537, Metabolic Activation: RAT, LIVER, S-9, AROCLOR 1254, Method: PREINCUBATION): inactive; negative
- mutagenic call (Test System: AMES SALMONELLA TYPHIMURIUM, Strain/Indicator: TA1537, Metabolic Activation: RAT, LIVER, S-9, AROCLOR 1254, Method: STANDARD PLATE): active; positive
- mutagenic call (Test System: MOUSE LYMPHOMA, Strain/Indicator: L5178Y (TK+/TK-), Metabolic Activation: NONE, Method: MICROWELL): inactive; negative
- mutagenic call (Test System: MOUSE LYMPHOMA, Strain/Indicator: L5178Y (TK+/TK-), Metabolic Activation: NONE, Method: SUSPENSION/PLATE): active; positive
- mutagenic call (Test System: MOUSE LYMPHOMA, Strain/Indicator: L5178Y (TK+/TK-), Metabolic Activation: S-9, Method: MICROWELL): active; positive
- mutagenic call (Test System: UDS RAT HEPATOCYTES, Strain/Indicator: THY INCORP, Metabolic Activation: NONE, Method: AUTORADIOGRAPHY): inactive; negative

SMILES: Cc1ccc(N)cc1N=[N+]([O-])c1cc(N)ccc1C
- mutagenic call (Test System: AMES SALMONELLA TYPHIMURIUM, Strain/Indicator: TA98, Metabolic Activation: NONE, Method: SUSPENSION/PLATE): inactive; negative
- mutagenic call (Test System: AMES SALMONELLA TYPHIMURIUM, Strain/Indicator: TA98, Metabolic Activation: RAT, LIVER, S-9, PHENOBARBITAL AND 5,6-BENZOFLAVONE, Method: SUSPENSION/PLATE): inactive; negative
- mutagenic call (Test System: AMES SALMONELLA TYPHIMURIUM, Strain/Indicator: TA100, Metabolic Activation: NONE, Method: SUSPENSION/PLATE): inactive; negative
- mutagenic call (Test System: AMES SALMONELLA TYPHIMURIUM, Strain/Indicator: TA100, Metabolic Activation: RAT, LIVER, S-9, PHENOBARBITAL AND 5,6-BENZOFLAVONE, Method: SUSPENSION/PLATE): active; positive
